Legend:
[1] = test system: PM1 (CD4+/CCR5+) cells and 12E1 cells expressing HIV-1 envelope; assay: Fusion-inhibition (syncytium-formation) assay, PM1 cells with 12E1 cells expressing HIV-1 envelope; assay type: cell-based, human
[2] = test system: mAb 2D7; assay: Competition phage ELISA using synthetic peptides; assay type: binding, mouse; settings: free peptide, FIG. 3B
[3] = test system: mAb 2D7; assay: Peptide ELISA: mAb 2D7 binding to biotinylated peptides captured on streptavidin; set-up: species or system mouse; settings: for binding of mAb 2D7 to peptide in ELISA: biotinylated peptide captured by streptavidin
Description: The bound antibodies were quantified by HRP-conjugated goat anti-mouse IgG antibody. […] Microtiter wells, coated with mAb 2D7 at 200 ng/well, were incubated with serially diluted synthetic 2D7-2SK peptide or with a control peptide (CGRAARIGFPGAYTTKNG) (SEQ ID NO:3) for 30 min at room temperature, p2D7-2SK phages were then added to all wells (10^9 phages/well), followed by addition of HRP-conjugated anti-phage antibodies. […] MAb 2D7 (50 ng/100 μl/well) was added to plates coated with either unmodified biotin-2D7-2SK peptide or mutated biotin-2D7-2SK peptide derivatives (Table 1), all captured on streptavidin coated wells. The bound 2D7 antibodies were quantified by HRP-conjugated goat anti-mouse IgG antibody. The absorbance value (0.49) of mAb 2D7 binding to 2D7-2SK peptide (unmodified) is represented as 100% control binding.
A. Materials. […] Monoclonal antibody (mAb) 2D7 was purchased from BD Pharmingen (San Diego, Calif.). Immunoglobulin and HRP (horseradish peroxidase) conjugated secondary antibodies used for ELISA were obtained from Jackson Immuno Research Laboratories (West Grove, Pa.). Buffers and substrates for ELISA were purchased from KPL Biotech (Gaithersburg, Md.). New Zealand Rabbits were procured from Charles River (Wilmington, Mass.). B. Epitope mapping using phage display library. A random, linear, dodecapeptide-phage display library (Ph.D-12, New England Biolabs) was used for mAb 2D7 epitope mapping. Affinity selection of the phage clones from the random peptide library was carried out per the manufacturer's instructions with minor modifications. Microtiter wells were coated with 200 ng mAb 2D7 in 100 μl PBS, pH 7.4, at 4° C. for 12 h followed by 1 h at room temperature (RT). The wells were washed with PBS containing 0.05% Tween-20 (PBST) and blocked with EMEM containing 5% FBS at RT for 2 h. The phage library (1×10^10 phages/100 μl) was added to the blocked wells and incubated at RT for 1 h. Unbound phages were washed-off with ten washes of PBST followed by three washes with PBS. The bound phages were eluted at low pH by incubation with elution buffer (0.1 N Gly.HCl, pH 2.2 containing 1 mg/ml BSA) at 37° C. for 10 min. Eluent phages were neutralised with 6 μl of 2 M Tris (pH unadjusted) per 100 μl phage eluate. After four rounds of biopanning, the phage clones were analysed by DNA sequencing and affinity-capture phage ELISA. C. Phage ELISA. Phages used for ELISA were derived from clones selected after the fourth round of panning. Microtiter plates coated with 200 ng of mAb 2D7 were blocked with EMEM containing 5% FBS (blocking solution). The phages (10^10/100 μl/well) diluted in blocking solution were then added and incubated for 1 h at room temperature (RT). The plates were washed three times with PBST prior to addition of […] anti-phage antibody (GE Healthcare, Piscataway, N.J.), and the reaction was quantified using ABTS substrate. Absorbance was measured at 405 nm. D. Peptide ELISA. Peptides were biotinylated using maleimide PEO2-Biotin reagent as per manufacturer's instructions (Pierce Biotech, Rockford, Ill.). The biotinylated peptide ([…]) was captured onto wells coated with 200 ng of streptavidin. After blocking with EMEM containing 5% FBS, serial dilutions of mAb 2D7 in blocking solution were added to each well, incubated for 1 hr at RT, followed by addition of peroxidase-conjugated goat anti-mouse IgG. The reaction was quantified using ABTS substrate. Absorbance was measured at 405 nm. […]

[4] = test system: 2D7-2SK peptide; assay: Peptide ELISA: antibody binding to biotinylated 2D7-2SK peptide; settings: ELISA / binding assay
Description: IgG antibodies from rabbit immunized subcutaneously with KLH-conjugated 2D7-2SK peptide were used in peptide and Cell ELISA. […] Specific antibody binding was measured by HRP-conjugated goat anti-rabbit IgG antibody.
A. Materials. […] Monoclonal antibody (mAb) 2D7 was purchased from BD Pharmingen (San Diego, Calif.). Immunoglobulin and HRP (horseradish peroxidase) conjugated secondary antibodies used for ELISA were obtained from Jackson Immuno Research Laboratories (West Grove, Pa.). Buffers and substrates for ELISA were purchased from KPL Biotech (Gaithersburg, Md.). New Zealand Rabbits were procured from Charles River (Wilmington, Mass.). B. Epitope mapping using phage display library. A random, linear, dodecapeptide-phage display library (Ph.D-12, New England Biolabs) was used for mAb 2D7 epitope mapping. Affinity selection of the phage clones from the random peptide library was carried out per the manufacturer's instructions with minor modifications. […] After four rounds of biopanning, the phage clones were analysed by DNA sequencing and affinity-capture phage ELISA. […] The plates were washed three times with PBST prior to addition of […] anti-phage antibody (GE Healthcare, Piscataway, N.J.), and the reaction was quantified using ABTS substrate. Absorbance was measured at 405 nm. […] The reaction was quantified using ABTS substrate. Absorbance was measured at 405 nm. […]

## E-W-Q-K-E-G-L-V-T-L-W-L-G-G-G-G-S-C (EWQKEGLVTLWLGGGGSC) [2D7-2SK]
[1]; peptide alone
  inhibitory activity of peptide by itself in the fusion assay: did not demonstrate any inhibitory activity
[2]
  inhibition of binding of phage p2D7-2SK to mAb 2D7-coated plates: inhibited
[3]
  binding of mAb 2D7 to peptide in ELISA: concentration-dependent specific reactivity
[3]; mAb 2D7 50 ng/100 μl/well, represented as 100% control binding, FIG. 3C
  absorbance value of mAb 2D7 binding to peptide: 0.49

## E-W-Q-R-E-G-L-V-T-L-W-L-G-G-G-G-S-C (EWQREGLVTLWLGGGGSC) [2D7-2SK-K4R]
[3]
  binding of mAb 2D7 to peptide in ELISA: completely lost binding

## F-C-A-L-D-G-D-F-G-W-L-A-P-A-C (FCALDGDFGWLAPAC) [MD23, reference compound]
[3]
  binding of mAb 2D7 to peptide in ELISA: did not bind

## Q-L-W-L-G-W-T-E-L-E-G-V-K-G-G-G-S-C (QLWLGWTELEGVKGGGSC) [2D7-2SK-SCR, reference compound]
[3]
  binding of mAb 2D7 to peptide in ELISA: not

B1: ScFv-SK-34: single chain human monoclonal antibody against peptide 2D7-2SK; VH SEQ ID NO:12, VL SEQ ID NO:14 (antibody, listed as Homo sapiens, V domains shown)
VH: EVQLLESGGGLVQPGGSLRLSCAASGFTFDDYGMSWVRQAPGKGLEWVSVISASGGSTYYADSVNGRFTISRDNSKNTLYLQMNSLRAEDTAVYYCARYLPGLWAMDVWGQGTLVTVSSGSA
VL: DIVLTQPPSASGTPGQRVTISCTGSRSNIGKNYVSWYQQLPGKAPKLLIYKNYQRPSGVPDRFSGSKSGTSASLAISGLRSEDEADYYCAAWDDSLSGWVFGGSTQLTVLA
[1]; R5 HIV-1 envelopes, human CCR5 expressing cells
  inhibition of HIV syncytia formation, in words: positive
[4]
  binding to 2D7-2SK peptide: bind preferentially and with high affinity

— patent US8282926B2, “CCR5-specific antibodies with HIV neutralizing activity that recognize a linear dodecapeptide that mimics a conformational epitope in the second extracellular loop of CCR5” (The United States of America, as Represented by the …, priority 2004, dated 2012)
